pIC50: −log10 of the molar value.
How the values were obtained:
[1] = Selectivity index, ratio of IC50 for hTERT-RPE1 cells to IC50 for human CCRF-CEM cells; assay type: toxicity; conditions: hTERT-RPE1 cells versus CCRF-CEM cells, read-out: Ratio IC50
[2] = system: hTERT-BJ; assay: Cytotoxicity against hTERT-BJ cells at 25 uM after 48 hrs by resazurin dye-based fluorescence assay relative to control; assay type: cell-based; conditions: human
[3] = system: hTERT-BJ; assay: Cytotoxicity against hTERT-BJ cells at 6.25 uM after 48 hrs by resazurin dye-based fluorescence assay relative to control; assay type: cell-based; conditions: human
[4] = system: hTERT-BJ; assay: Cytotoxicity against hTERT-BJ cells at 50 uM after 48 hrs by resazurin dye-based fluorescence assay relative to control; assay type: cell-based; conditions: human
[5] = system: TERT-RPE1; assay: Cytotoxicity against hTERT-RPE1 cells at 50 uM after 48 hrs by resazurin dye-based fluorescence assay relative to control; assay type: cell-based; conditions: human, tert-rpe1, 48 h
[6] = Selectivity index, ratio of IC50 for hTERT-RPE1 cells to IC50 for human PANC1 cells; assay type: toxicity; conditions: hTERT-RPE1 cells versus PANC1 cells, read-out: Ratio IC50
[7] = system: PANC-1; assay: Antiproliferative activity against human PANC1 cells after 48 hrs by resazurin dye-based fluorescence assay; assay type: functional, cell-based; conditions: PANC-1, 48 h
[8] = system: TERT-RPE1; assay: Cytotoxicity against hTERT-RPE1 cells at 6.25 uM after 48 hrs by resazurin dye-based fluorescence assay relative to control; assay type: cell-based; conditions: human, tert-rpe1, 48 h
[9] = Selectivity index, ratio of IC50 for hTERT-BJ cells to IC50 for human HepG2 cells; assay type: toxicity; conditions: hTERT-BJ cells versus HepG2 cells, read-out: Ratio IC50
[10] = system: TERT-RPE1; assay: Cytotoxicity against hTERT-RPE1 cells after 48 hrs by resazurin dye-based fluorescence assay; assay type: cell-based; conditions: Homo sapiens, RPE-1, 48 h
[11] = Selectivity index, ratio of IC50 for hTERT-RPE1 cells to IC50 for human HepG2 cells; assay type: toxicity; conditions: hTERT-RPE1 cells versus HepG2 cells, read-out: Ratio IC50
[12] = system: hTERT-BJ; assay: Cytotoxicity against hTERT-BJ cells at 12.50 uM after 48 hrs by resazurin dye-based fluorescence assay relative to control; assay type: cell-based; conditions: human, 12.5 µM
[13] = system: hTERT-BJ; assay: Cytotoxicity against hTERT-BJ cells after 48 hrs by resazurin dye-based fluorescence assay; assay type: cell-based; conditions: Homo sapiens
[14] = Selectivity index, ratio of IC50 for hTERT-BJ cells to IC50 for human CCRF-CEM cells; assay type: toxicity; conditions: hTERT-BJ cells versus CCRF-CEM cells, read-out: Ratio IC50
[15] = system: TERT-RPE1; assay: Cytotoxicity against hTERT-RPE1 cells at 25 uM after 48 hrs by resazurin dye-based fluorescence assay relative to control; assay type: cell-based; conditions: human, tert-rpe1, 48 h
[16] = system: CCRF-CEM; assay: Antiproliferative activity against human CCRF-CEM cells after 48 hrs by resazurin dye-based fluorescence assay; assay type: functional, cell-based
[17] = Selectivity index, ratio of IC50 for hTERT-BJ cells to IC50 for human PANC1 cells; assay type: toxicity; conditions: hTERT-BJ cells versus PANC1 cells, read-out: Ratio IC50
[18] = system: TERT-RPE1; assay: Cytotoxicity against hTERT-RPE1 cells at 12.50 uM after 48 hrs by resazurin dye-based fluorescence assay relative to control; assay type: cell-based; conditions: human, tert-rpe1, 48 h, 12.5 µM
[19] = system: HepG2; assay: Antiproliferative activity against human HepG2 cells after 48 hrs by resazurin dye-based fluorescence assay; assay type: functional, cell-based; conditions: HepG2, 48 h

Compound | selectivity ratio [1] | Activity [2] | Activity [3] | Activity [4] | Activity [5] | selectivity ratio [6] | pIC50 [7] | Activity [8] | selectivity ratio [9] | pIC50 [10] | selectivity ratio [11] | Activity [12] | pIC50 [13] | selectivity ratio [14] | Activity [15] | pIC50 [16] | selectivity ratio [17] | Activity [18] | pIC50 [19]
O=C(N/N=C/c1cccnc1)c1cc2ccc(O)cc2oc1=O | > 3.55 | 1.99% | 0.5% | 2.27% | 20.79% | > 19.8 | 5.60 | 8.83% | > 2.72 | < 4.30 | > 2.72 | 1.26% | < 4.30 | > 3.55 | 14.34% | 4.85 | > 19.8 | 12.79% | 4.74
CCOc1ccc(NC(=O)c2cc3cc([N+](=O)[O-])ccc3oc2=O)cc1 | > 3.78 | 5.22% | 3.1% | 6.11% | 9.35% | > 4.13 | 4.92 | 5.12% | > 1.77 | < 4.30 | > 1.77 | 1.66% | < 4.30 | > 3.78 | 8.22% | 4.88 | > 4.13 | 6.01% | 4.55
O=C(N/N=C/c1cccnc1)c1cc2cc(Br)ccc2oc1=O | > 13.5 | 1.7% | 0.86% | 2.33% | 34.12% | > 5.99 | 5.08 | 6.64% | > 2.63 | < 4.30 | > 2.63 | 0.78% | < 4.30 | > 13.5 | 25.4% | 5.43 | > 5.99 | 12.55% | 4.72
Cc1noc(NS(=O)(=O)c2ccc(NC(=O)c3cc4cc(Br)ccc4oc3=O)cc2)c1C | > 3.43 | 3.04% | 0.95% | 13.26% | 26.26% | > 1.74 | 4.54 | 1.84% | > 5.68 | < 4.30 | > 5.68 | 1.2% | < 4.30 | > 3.43 | 12.79% | 4.84 | > 1.74 | 10.36% | 5.06
Cc1noc(NS(=O)(=O)c2ccc(NC(=O)c3cc4ccc(O)cc4oc3=O)cc2)c1C | > 2.33 | 3.63% | 1.17% | 5% | 5.78% | > 3.09 | 4.79 | 0.99% | > 1.29 | < 4.30 | > 1.29 | 3.52% | < 4.30 | > 2.33 | 5.92% | 4.67 | > 3.09 | 5.89% | 4.41
O=C(N/N=C/c1cccnc1)c1cc2cc([N+](=O)[O-])ccc2oc1=O | > 2.92 | 3.22% | 3.59% | 3.99% | 17.11% | > 4.24 | 4.93 | 1.1% | > 2.94 | < 4.30 | > 2.94 | 5.49% | < 4.30 | > 2.92 | 10.95% | 4.77 | > 4.24 | 2.22% | 4.77
CCOc1ccc(NC(=O)c2cc3ccc(O)cc3oc2=O)cc1 | > 3.97 | 30.03% | 10.17% | 31.23% | 36.28% | > 3.5 | 4.85 | 11.23% | > 2.88 | < 4.30 | > 2.88 | 15.98% | < 4.30 | > 3.97 | 19.22% | 4.90 | > 3.5 | 13.91% | 4.76

Source: ChEMBL document CHEMBL4152218, “Novel hydrazide-hydrazone and amide substituted coumarin derivatives: Synthesis, cytotoxicity screening, microarray, radiolabeling and in vivo pharmacokinetic studies” (Eur J Med Chem, 2018)
